# How the values were obtained:
# HsProRS = target: T1, HsProRS (Homo sapiens, UniProt P07814); experiment: luciferase ATP depletion assay, counter-screen; type: biochemical; settings: for inhibition at 1.46 µM: at 1.46 μM (750 μM series); for inhibition at 187.5 µM: at 187.50 μM
# T1 construct: made in house
# T1 sequence (P07814 1007-1512 limits assumed): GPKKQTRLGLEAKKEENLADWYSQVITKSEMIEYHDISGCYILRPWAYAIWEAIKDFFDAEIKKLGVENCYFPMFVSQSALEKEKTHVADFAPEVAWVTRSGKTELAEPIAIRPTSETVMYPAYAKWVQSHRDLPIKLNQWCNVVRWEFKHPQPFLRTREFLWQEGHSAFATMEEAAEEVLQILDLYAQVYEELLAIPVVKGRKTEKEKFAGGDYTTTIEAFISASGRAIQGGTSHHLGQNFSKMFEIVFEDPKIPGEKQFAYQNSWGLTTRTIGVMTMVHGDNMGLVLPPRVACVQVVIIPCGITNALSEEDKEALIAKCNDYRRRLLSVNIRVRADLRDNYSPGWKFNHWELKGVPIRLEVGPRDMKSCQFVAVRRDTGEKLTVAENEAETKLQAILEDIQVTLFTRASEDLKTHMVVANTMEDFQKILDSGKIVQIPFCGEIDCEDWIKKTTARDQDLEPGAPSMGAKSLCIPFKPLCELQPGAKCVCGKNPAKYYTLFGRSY
# PfProRS [1] = target: T2, PfProRS (Plasmodium falciparum, UniProt Q8I5R7); experiment: luciferase ATP depletion assay, HTS format; type: biochemical
# T2 construct: B2, AA7–746 (minus 6 amino acids, or 99% of the ORF); made in house; host or cells: E. coli BL21(DE3)R3 Rosetta Oxford
# PfProRS [2] = target: T2, PfProRS; experiment: biochemical; type: biochemical; settings: read-out: Pf ProRS IC50
# [3] = tested on: Plasmodium falciparum strain 3D7; experiment: Plasmodium falciparum growth inhibition, SYBR green fluorescence; type: cell-based; settings: 3D7, growth inhibition, read-out: Pf (3D7) EC50
# [4] = read-out: Percentage inhibition Hs ProRS
# [5] = read-out: Percentage inhibition Pf ProRS
# T2 sequence (Q8I5R7 7-746): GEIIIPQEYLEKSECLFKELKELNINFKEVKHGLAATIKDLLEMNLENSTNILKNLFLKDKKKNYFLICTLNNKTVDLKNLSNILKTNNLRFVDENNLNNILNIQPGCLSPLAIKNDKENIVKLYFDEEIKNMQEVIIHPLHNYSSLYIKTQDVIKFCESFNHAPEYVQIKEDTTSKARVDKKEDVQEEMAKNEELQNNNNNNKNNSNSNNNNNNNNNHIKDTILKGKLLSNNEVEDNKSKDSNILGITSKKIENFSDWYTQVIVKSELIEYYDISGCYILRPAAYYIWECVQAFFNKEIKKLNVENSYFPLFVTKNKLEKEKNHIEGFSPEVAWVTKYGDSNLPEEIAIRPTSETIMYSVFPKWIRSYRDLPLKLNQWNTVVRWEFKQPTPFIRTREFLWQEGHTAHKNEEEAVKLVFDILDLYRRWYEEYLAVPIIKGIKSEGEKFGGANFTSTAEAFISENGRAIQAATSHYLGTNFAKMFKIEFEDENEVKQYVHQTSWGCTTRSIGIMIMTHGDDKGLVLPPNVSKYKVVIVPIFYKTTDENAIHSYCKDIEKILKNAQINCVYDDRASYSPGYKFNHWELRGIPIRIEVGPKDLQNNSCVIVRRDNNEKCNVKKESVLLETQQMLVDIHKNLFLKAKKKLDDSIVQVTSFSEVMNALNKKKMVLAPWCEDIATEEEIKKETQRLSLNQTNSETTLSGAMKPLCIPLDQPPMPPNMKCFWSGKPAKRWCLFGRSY
Compound,inhibition at 0.73 µM (HsProRS; [4]),inhibition at 1.46 µM (HsProRS; [4]),inhibition at 2.93 µM (HsProRS; [4]),inhibition at 5.86 µM (HsProRS; [4]),inhibition at 11.72 µM (HsProRS; [4]),inhibition at 23.44 µM (HsProRS; [4]),inhibition at 46.88 µM (HsProRS; [4]),inhibition at 93.75 µM (HsProRS; [4]),inhibition at 187.5 µM (HsProRS; [4]),inhibition at 375 µM (HsProRS; [4]),inhibition at 750 µM (HsProRS; [4]),inhibition at 0.73 µM (PfProRS [1]; [5]),inhibition at 1.46 µM (PfProRS [1]; [5]),inhibition at 2.93 µM (PfProRS [1]; [5]),inhibition at 5.86 µM (PfProRS [1]; [5]),inhibition at 11.72 µM (PfProRS [1]; [5]),inhibition at 23.44 µM (PfProRS [1]; [5]),inhibition at 46.88 µM (PfProRS [1]; [5]),inhibition at 93.75 µM (PfProRS [1]; [5]),inhibition at 187.5 µM (PfProRS [1]; [5]),also measured
Cc1c(Nc2ncccc2C(=O)O)cccc1C(F)(F)F [flunixin meglumine],0.21%,0.19%,0.2%,0.17%,0.37%,0.52%,0.27%,-0.02%,0.03%,0.43%,1.37%,0.6%,-0.28%,-0.7%,-0.41%,1.63%,2.17%,11.4%,30.7%,62%,inhibition at 375 µM (PfProRS [1]; [5]): 87.1%; inhibition at 750 µM (PfProRS [1]; [5]): 99.8%
Cn1nc(C#N)c(-c2ccc(F)cc2)c1NC(=O)Nc1ccc(F)cc1 [Compound 22],,,,,,,,,,,,,,,,,,,,,IC50 (PfProRS [2]): 5 µM; EC50 [3]: 0.6 µM
Cn1nc(C(F)(F)F)c(-c2ccc(F)cc2)c1NC(=O)Nc1ccnc(N2CCOCC2)c1 [Compound 6],,,,,,,,,,,,,,,,,,,,,IC50 (PfProRS [2]): > 50 µM; EC50 [3]: > 50 µM
O=C(Nc1ccc(F)cc1)Nc1c(-c2ccc(F)cc2)c(C(F)(F)F)nn1CCO [Compound 8],,,,,,,,,,,,,,,,,,,,,IC50 (PfProRS [2]): > 50 µM; EC50 [3]: > 50 µM
COc1ccc(Cl)cc1C(=O)NCCc1ccc(S(=O)(=O)NC(=O)NC2CCCCC2)cc1 [glyburide],0.05%,0.03%,-0.04%,0.29%,0.01%,0.12%,0.36%,1.41%,4.93%,15.1%,36.1%,1.32%,1.82%,6.24%,12.4%,23.8%,39.7%,60%,81.4%,87%,"IC50 (HsProRS): > 700 µM; inhibitory activity for HsProRS (HsProRS; up to the limit of solubility (>1 mM)): < 40%; IC50 (PfProRS [1]; PfProRS IC50, 75 nM ProRS, 60 μM proline, 6 μM ATP, 400 μg/mL yeast tRNA, 2 h 37 °C): 34 µM; inhibition at 375 µM (PfProRS [1]; [5]): 94%; inhibition at 750 µM (PfProRS [1]; [5]): 102%"
CCCc1nc2c(C)cc(-c3nc4ccccc4n3C)cc2n1Cc1ccc(-c2ccccc2C(=O)O)cc1 [telmisartan],0.44%,0.05%,0.04%,-0.1%,0.01%,0%,-0.02%,0.37%,4.23%,0.25%,0.58%,-0.36%,-0.06%,-0.17%,-0.08%,2.19%,3.94%,13.4%,48.8%,80.8%,inhibition at 375 µM (PfProRS [1]; [5]): 15.5%; inhibition at 750 µM (PfProRS [1]; [5]): 11.8%
O=C(CCn1cncn1)N1CCCC(c2[nH]c3ccccc3c2-c2ccncc2)C1 (centres unmarked) [TCMDC-125377],,,,,,,,,,,,,,,,,,,,,"inhibition at 0.03 µM (HsProRS; at 0.03 μM (22.50 μM series), read-out: Percentage inhibition Hs ProRS): 0.18%; inhibition at 0.09 µM (HsProRS; at 0.09 μM, read-out: Percentage inhibition Hs ProRS): -0.1%; inhibition at 0.28 µM (HsProRS; at 0.28 μM, read-out: Percentage inhibition Hs ProRS): -0.22%; inhibition at 0.83 µM (HsProRS; at 0.83 μM, read-out: Percentage inhibition Hs ProRS): -0.91%; inhibition at 2.5 µM (HsProRS; at 2.50 μM (22.50 μM series), read-out: Percentage inhibition Hs ProRS): -0.37%; inhibition at 7.5 µM (HsProRS; at 7.50 μM, read-out: Percentage inhibition Hs ProRS): 0.2%; inhibition at 22.5 µM (HsProRS; at 22.50 μM, read-out: Percentage inhibition Hs ProRS): 0.03%; inhibition at 0.28 µM (PfProRS [1]; at 0.28 μM, read-out: Percentage inhibition Pf ProRS): 6.8%; inhibition at 0.03 µM (PfProRS [1]; [5]): 1.17%; inhibition at 0.09 µM (PfProRS [1]; [5]): 2.41%; inhibition at 0.83 µM (PfProRS [1]; [5]): 15.4%; inhibition at 2.5 µM (PfProRS [1]; [5]): 24.7%; inhibition at 7.5 µM (PfProRS [1]; [5]): 33.9%; inhibition at 22.5 µM (PfProRS [1]; [5]): 40.1%"
